In ChEMBL document CHEMBL4725446, “Development of a Raltegravir-based Photoaffinity-Labeled Probe for Human Immunodeficiency Virus-1 Integrase Capture” (ACS Med Chem Lett, 2020):
Active and inactive are the calls of the source. The calls are words filed in the database; no cut-off is given here.

Assays:
[1] = Inhibition of HIV1 integrase assessed as reduction in LEDGF-independent integration pre-incubated for 1 hr before addition of DNA donor and acceptor substrate and measured after 90 mins by HTRF assay; parameters: species or system Human immunodeficiency virus 1
[2] = system: Human immunodeficiency virus 1; assay: Binding affinity to HIV1 integrase assessed as induction of cross-linking at peptide region 164ELK166 at 7.5 to 25 uM in presence of UV illumination for 15 mins in presence of trypsin by LC-MS analysis; details: dose microM 7.5-25, time 15.0 min
[3] = system: Human immunodeficiency virus 1; assay: Binding affinity to HIV1 integrase assessed as induction of enzyme molecular weight shift at 7.5 to 25 uM in presence of UV illumination for 15 mins by LC-MS analysis; details: dose microM 7.5-25, time 15.0 min
[4] = system: Human immunodeficiency virus 1; assay: Binding affinity to HIV1 integrase assessed as induction of cross-linking at peptide region 42EIVASCDK49 at 7.5 to 25 uM in presence of UV illumination for 15 mins in presence of trypsin by LC-MS analysis; details: dose microM 7.5-25, time 15.0 min
[5] = system: Human immunodeficiency virus 1; assay: Binding affinity to HIV1 integrase assessed as conjugation of enzyme at 7.5 to 25 uM in presence of UV illumination for 15 mins by SDS-PAGE analysis based photoaffinity labelling method; details: dose microM 7.5-25, time 15.0 min

Structure (SMILES) | IC50 [1] | Activity [2] | Activity [3] | Activity [4] | Activity [5]
CC(C)c1nc(C(=O)O)c(O)c(=O)n1C | 73000 nM |  |  |  | 
CC(C)c1nc(C(=O)NCc2ccc(C(=O)c3ccccc3)cc2)c(O)c(=O)n1C | 2300 nM | Active | Active | Active | Active
Cc1nnc(C(=O)NC(C)(C)c2nc(C(=O)NCc3ccc(F)cc3)c(O)c(=O)n2C)o1 [RALTEGRAVIR] | 58 nM |  |  |  | 
